Earlier results, collected in patent publication US20220193200A1, “TANNIC ACID/FE (III) NANOPARTICLES AND METHODS OF DRUG DELIVERY” (The Johns Hopkins University, priority 2019, published 2022).

- pKa: around 6
SMILES: O=C(OC[C@H]1O[C@@H](OC(=O)c2cc(O)c(O)c(OC(=O)c3cc(O)c(O)c(O)c3)c2)[C@H](OC(=O)c2cc(O)c(O)c(OC(=O)c3cc(O)c(O)c(O)c3)c2)[C@@H](OC(=O)c2cc(O)c(O)c(OC(=O)c3cc(O)c(O)c(O)c3)c2)[C@@H]1OC(=O)c1cc(O)c(O)c(OC(=O)c2cc(O)c(O)c(O)c2)c1)c1cc(O)c(O)c(OC(=O)c2cc(O)c(O)c(O)c2)c1 [tannic acid, Tannic acid]
